# Source: patent US8455475B2 (Gruenenthal GmbH, priority 2009, dated 2013)
# Molecular target: T1, rat B1R (bradykinin receptor 1) (Rattus norvegicus, UniProt P97583)
# T1 construct: expressed in transfected cells; host or cells: CHO K1 cells
# T1 sequence (P97583 1-337): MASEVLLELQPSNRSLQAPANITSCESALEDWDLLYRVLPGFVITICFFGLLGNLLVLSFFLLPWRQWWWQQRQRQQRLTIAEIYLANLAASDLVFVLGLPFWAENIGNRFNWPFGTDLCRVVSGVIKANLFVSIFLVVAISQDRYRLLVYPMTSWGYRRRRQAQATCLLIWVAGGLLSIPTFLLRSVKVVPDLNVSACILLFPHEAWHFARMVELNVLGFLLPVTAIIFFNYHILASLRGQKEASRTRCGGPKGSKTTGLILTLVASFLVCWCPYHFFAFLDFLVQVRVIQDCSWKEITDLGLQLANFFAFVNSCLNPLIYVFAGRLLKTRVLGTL
# Experiment: FLIPR Ca2+ assay (Fluo-4) on CHO K1 cells stably transfected with the B1R gene of the rat (rB1R cells): % inhibition at 10 μM / IC50, agonist Des-Arg9-bradykinin
# Assay type: cell-based
# Details: CHO-K1, rat B1R
# Summary of the method: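 Cells were Fluo-4-loaded, then test compound (10 μM, or a concentration series for IC50) was preincubated 10–20 min before agonist challenge at EC80: Lys-Des-Arg9-bradykinin for hB1R, Des-Arg9-bradykinin for rB1R. Peak Ca2+ fluorescence (ex 488/em 540 nm) gave % inhibition versus maximal achievable inhibition.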
row,Compound,inhibition at 10 µM
1,"O=C(NC1CCc2ccc(C(=O)N3CCC4(CC3)CCN(c3ccncc3)CC4)cc21)c1c(F)cccc1C(F)(F)F (centres unmarked) [IND_CC-376, 2-Fluoro-N-[6-(9-pyridin-4-yl-3,9-diazaspiro[5.5]undecane-3-carbonyl)-2,3-dihydro-1H-inden-1-yl]-6-(trifluoromethyl)-benzamide]",102%
2,"N#Cc1cccc(CN2CCC3(CC2)CCN(C(=O)c2ccc4c(c2)C(NC(=O)c2cc(C(F)(F)F)ccc2Cl)CC4)CC3)c1 (centres unmarked) [IND_CC-667, 2-Chloro-N-[6-[9-[(3-cyano-phenyl)-methyl]-3,9-diazaspiro[5.5]undecane-3-carbonyl]-2,3-dihydro-1H-inden-1-yl]-5-(trifluoromethyl)-benzamide]",85%
3,"Cc1cc(F)cc(C)c1S(=O)(=O)NC1CCc2ccc(C(=O)N3CCC4(CC3)CCN(c3ccncc3)C4)cc21 (centres unmarked) [IND_CC-356, 4-Fluoro-2,6-dimethyl-N-[6-(2-pyridin-4-yl-2,8-diazaspiro[4.5]decane-8-carbonyl)-2,3-dihydro-1H-inden-1-yl]-benzenesulfonic acid amide]",69%
4,"CN(C(=O)C1CC1)C1CCc2ccc(C(=O)N3CCC4(CC3)CCN(c3ccncc3)CC4)cc21 (centres unmarked) [IND_CC-369, N-Methyl-N-[6-(9-pyridin-4-yl-3,9-diazaspiro[5.5]undecane-3-carbonyl)-2,3-dihydro-1H-inden-1-yl]-cyclopropanecarboxylic acid amide]",74%
5,"COc1ccc(CN2CCC3(CC2)CCN(C(=O)c2ccc4c(c2)C(NC(=O)c2c(F)cccc2Cl)CC4)CC3)cc1F (centres unmarked) [IND_CC-792, 2-Chloro-6-fluoro-N-[6-[9-[(3-fluoro-4-methoxy-phenyl)-methyl]-3,9-diazaspiro[5.5]undecane-3-carbonyl]-2,3-dihydro-1H-inden-1-yl]-benzamide]",89%
6,"O=C(NC1CCc2ccc(C(=O)N3CCC4(CCN(Cc5ccc(F)c(F)c5)CC4)CC3)cc21)c1c(F)cccc1Cl (centres unmarked) [IND_CC-789, 2-Chloro-N-[6-[9-[(3,4-difluoro-phenyl)-methyl]-3,9-diazaspiro[5.5]undecane-3-carbonyl]-2,3-dihydro-1H-inden-1-yl]-6-fluoro-benzamide]",98%
7,"O=C(NC1CCc2ccc(C(=O)N3CCC4(CCN(Cc5c(F)cccc5Cl)CC4)CC3)cc21)c1ccccc1Cl (centres unmarked) [IND_CC-530, 2-Chloro-N-[6-[9-[(2-chloro-6-fluoro-phenyl)-methyl]-3,9-diazaspiro[5.5]undecane-3-carbonyl]-2,3-dihydro-1H-inden-1-yl]-benzamide]",96%
8,"COc1ccc(CN2CCC3(CC2)CCN(C(=O)c2ccc4c(c2)C(N(C)C(=O)c2ccccc2Cl)CC4)C3)cc1F (centres unmarked) [IND_CC-552, 2-Chloro-N-[6-[8-[(3-fluoro-4-methoxy-phenyl)-methyl]-2,8-diazaspiro[4.5]-decane-2-carbonyl]-2,3-dihydro-1H-inden-1-yl]-N-methyl-benzamide]",68%
9,"O=C(NC1CCc2ccc(C(=O)N3CCC4(CCN(Cc5ccc(F)c(F)c5)CC4)C3)cc21)c1cc(C(F)(F)F)ccc1Cl (centres unmarked) [IND_CC-633, 2-Chloro-N-[6-[8-[(3,4-difluoro-phenyl)-methyl]-2,8-diazaspiro[4.5]decane-2-carbonyl]-2,3-dihydro-1H-inden-1-yl]-5-(trifluoromethyl)-benzamide]",86%
10,"O=C(NC1CCc2ccc(C(=O)N3CCC4(CCN(C(=O)c5ccc(F)cc5F)CC4)C3)cc21)c1sccc1Cl (centres unmarked) [IND_CC-585, 3-Chloro-N-[6-[8-(2,4-difluoro-benzoyl)-2,8-diazaspiro[4.5]decane-2-carbonyl]-2,3-dihydro-1H-inden-1-yl]-thiophene-2-carboxylic acid amide]",52%
11,"Cc1nc[nH]c1CN1CCC2(CC1)CCN(C(=O)c1ccc3c(c1)C(NC(=O)c1ccccc1Cl)CC3)CC2 (centres unmarked) [IND_CC-527, 2-Chloro-N-[6-[9-[(5-methyl-3H-imidazol-4-yl)-methyl]-3,9-diazaspiro[5.5]undecane-3-carbonyl]-2,3-dihydro-1H-inden-1-yl]-benzamide]",98%
12,"Cc1c(CN2CCC3(CC2)CCN(C(=O)c2ccc4c(c2)C(NC(=O)c2c(F)cccc2Cl)CC4)C3)cnn1C (centres unmarked) [IND_CC-737, 2-Chloro-N-[6-[8-[(1,5-dimethyl-1H-pyrazol-4-yl)-methyl]-2,8-diazaspiro-[4.5]decane-2-carbonyl]-2,3-dihydro-1H-inden-1-yl]-6-fluoro-benzamide]",55%
13,"N#Cc1cccc(NC(=O)N2CCC3(CC2)CCN(C(=O)c2ccc4c(c2)C(NC(=O)c2ccccc2Cl)CC4)CC3)c1 (centres unmarked) [IND_CC-705, 3-[3-[(2-Chloro-benzoyl)amino]-2,3-dihydro-1H-indene-5-carbonyl]-N-(3-cyano-phenyl)-3,9-diazaspiro[5.5]undecane-9-carboxylic acid amide]",101%
14,"CCC(CC)CN1CCC2(CC1)CCN(C(=O)c1ccc3c(c1)C(NC(=O)c1cc(C(F)(F)F)ccc1Cl)CC3)C2 (centres unmarked) [IND_CC-688, 2-Chloro-N-[6-[8-(2-ethyl-butyl)-2,8-diazaspiro[4.5]decane-2-carbonyl]-2,3-dihydro-1H-inden-1-yl]-5-(trifluoromethyl)-benzamide]",88%
15,"O=C(NC1CCc2ccc(C(=O)N3CCC4(CCN(Cc5ccc6nccnc6c5)CC4)C3)cc21)c1cccc(Cl)c1Cl (centres unmarked) [IND_CC-745, 2,3-Dichloro-N-[6-[8-(quinoxalin-6-yl-methyl)-2,8-diazaspiro[4.5]decane-2-carbonyl]-2,3-dihydro-1H-inden-1-yl]-benzamide]",70%
16,"Cn1ccc2cc(S(=O)(=O)N3CCC4(CCN(C(=O)c5ccc6c(c5)C(NC(=O)c5ccccc5Cl)CC6)CC4)CC3)ccc21 (centres unmarked) [IND_CC-614, 2-Chloro-N-[6-[9-[(1-methyl-1H-indol-5-yl)sulfonyl]-3,9-diazaspiro[5.5]undecane-3-carbonyl]-2,3-dihydro-1H-inden-1-yl]-benzamide]",67%
17,"O=C(NC1CCc2ccc(C(=O)N3CCC4(CCN(Cc5ccc(F)c(F)c5)CC4)CC3)cc21)c1cc(C(F)(F)F)ccc1Cl (centres unmarked) [IND_CC-645, 2-Chloro-N-[6-[9-[(3,4-difluoro-phenyl)-methyl]-3,9-diazaspiro[5.5]undecane-3-carbonyl]-2,3-dihydro-1H-inden-1-yl]-5-(trifluoromethyl)-benzamide]",78%
18,"O=C(NC1CCc2ccc(C(=O)N3CCC4(CCN(CCCc5ccc(F)cc5)CC4)C3)cc21)c1cc(C(F)(F)F)ccc1Cl (centres unmarked) [IND_CC-692, 2-Chloro-N-[6-[8-[3-(4-fluorophenyl)-propyl]-2,8-diazaspiro[4.5]decane-2-carbonyl]-2,3-dihydro-1H-inden-1-yl]-5-(trifluoromethyl)-benzamide]",99%
19,"CCn1cc(CN2CCC3(CC2)CCN(C(=O)c2ccc4c(c2)C(NC(=O)c2cccc(Cl)c2Cl)CC4)C3)c(C)n1 (centres unmarked) [IND_CC-742, 2,3-Dichloro-N-[6-[8-[(1-ethyl-3-methyl-1H-pyrazol-4-yl)-methyl]-2,8-diazaspiro[4.5]decane-2-carbonyl]-2,3-dihydro-1H-inden-1-yl]-benzamide]",50%
20,"O=C(c1ccc2c(c1)C(NS(=O)(=O)Cc1ccccc1F)CC2)N1CCC2(CC1)CCN(c1ccncc1)C2 (centres unmarked) [IND_CC-350, 1-(2-Fluorophenyl)-N-[6-(2-pyridin-4-yl-2,8-diazaspiro[4.5]decane-8-carbonyl)-2,3-dihydro-1H-inden-1-yl]-methanesulfonic acid amide]",106%
21,"O=C(NC1CCc2ccc(C(=O)N3CCC4(CCN(CCCc5ccc(F)cc5)CC4)CC3)cc21)c1cccc(Cl)c1Cl (centres unmarked) [IND_CC-760, 2,3-Dichloro-N-[6-[9-[3-(4-fluorophenyl)-propyl]-3,9-diazaspiro[5.5]undecane-3-carbonyl]-2,3-dihydro-1H-inden-1-yl]-benzamide]",93%
22,"O=C(c1ccc2c(c1)C(N(C(=O)c1ccccc1Cl)C1CC1)CC2)N1CCC2(CCN(Cc3ccc(F)cc3F)CC2)C1 (centres unmarked) [IND_CC-523, 2-Chloro-N-cyclopropyl-N-[6-[8-[(2,4-difluoro-phenyl)-methyl]-2,8-diazaspiro[4.5]decane-2-carbonyl]-2,3-dihydro-1H-inden-1-yl]-benzamide]",68%
23,"Cc1cccc(Cl)c1C(=O)NC1CCc2ccc(C(=O)N3CCC4(CCN(Cc5ccc(C#N)cc5)CC4)C3)cc21 (centres unmarked) [IND_CC-731, 2-Chloro-N-[6-[8-[(4-cyano-phenyl)-methyl]-2,8-diazaspiro[4.5]decane-2-carbonyl]-2,3-dihydro-1H-inden-1-yl]-6-methyl-benzamide]",83%
24,"CN(C(=O)c1ccccc1F)C1CCc2ccc(C(=O)N3CCC4(CC3)CCN(c3ccncc3)CC4)cc21 (centres unmarked) [IND_CC-400, 2-Fluoro-N-methyl-N-[6-(9-pyridin-4-yl-3,9-diazaspiro[5.5]undecane-3-carbonyl)-2,3-dihydro-1H-inden-1-yl]-benzamide]",103%
25,"N#Cc1cccc(CN2CCC3(CC2)CCN(C(=O)c2ccc4c(c2)C(NC(=O)c2cc(C(F)(F)F)ccc2Cl)CC4)C3)c1 (centres unmarked) [IND_CC-659, 2-Chloro-N-[6-[8-[(3-cyano-phenyl)-methyl]-2,8-diazaspiro[4.5]decane-2-carbonyl]-2,3-dihydro-1H-inden-1-yl]-5-(trifluoromethyl)-benzamide]",81%
26,"CC(C)(C)CC(=O)N1CCC2(CC1)CCN(C(=O)c1ccc3c(c1)C(N(C(=O)c1ccccc1Cl)C1CC1)CC3)C2 (centres unmarked) [IND_CC-604, 2-Chloro-N-cyclopropyl-N-[6-[8-(3,3-dimethyl-butanoyl)-2,8-diazaspiro[4.5]decane-2-carbonyl]-2,3-dihydro-1H-inden-1-yl]-benzamide]",94%
